The values below come from US10286084B2, “Compositions for the inactivation of virus replication and methods of making and using the same” (priority 2014, dated 2019).

What all share (format): cell-based
Series [1] deals with HBV. Description: HBV DNA release into supernatant of transduced HBV2.2.15 cells, with or without antivirals. To be noted: compound 1 μM, relative to untreated N.S. sgRNA cells, average ± SD; for inhibition at 1 µM: Hepatitis B virus. As to the method:
HepAD38 or HBV2.2.15 cells were transduced with lentiviral vectors expressing a puromycin resistance gene as well as Spy Cas9 and an sgRNA, as described above, at 85-90% confluency after growth in medium lacking Tet for 48 h, to ensure expression of HBV mRNAs and DNA. Beginning at 48 h post-transduction, cells were selected in 4 μg/ml puromycin (Life Technologies) for 10 days to eliminate any non-transduced cells. Supernatant media and cells were then harvested for ELISA and real-time PCR assays. Control cells including non-transduced HepAD38 cells were included as positive controls for HBV replication (in medium lacking Tet) or virtual absence of HBV replication (in medium containing Tet). Non-transduced HBV 2.2.15 cells were included as a control in experiments where relevant.
On day 7, total DNA was purified from supernatant using a commercially available kit (DNeasy Blood & Tissue kit, Qiagen). The HBV DNA was amplified in a real-time PCR assay using the AB 7900HT sequence detection system (Applied Biosystems) or the LightCycler 480 (Roche) as described by Stuyver et al. (2002). All samples were tested in duplicate. The concentration of compound that inhibited HBV DNA replication by 50% (EC50) or 90% (EC90) was determined by linear regression. HBV log viral reduction was also determined.
After transduction with Cas9/sgRNA expressing lentiviral constructs and selection, we observed that extracellular levels of HBV DNA were suppressed by ˜98%, ˜80%, and ˜90%, respectively, by the RT, surface Ag, and core specific Cas9/sgRNA combinations (Table 1).

Series [2] deals with HPV-18 E6 or E7 gene target. Description: FLuc indicator assay in 293T cells, Spy Cas9 sgRNAs expressed from U6 or tRNA promoters. Conditions: Spy Cas9, 72 h, promoter driving the sgRNA varied. An excerpt: (§1) Human tRNA sequences were obtained from the Genomic tRNA database and the MHV tRNA-7 sequence was obtained from Bogerd et al. 2010. (Mol. Cell 37, p135-142, 2010). To generate a tRNA-sgRNA expression construct, overlapping oligonucleotides were assembled to create a tRNA fused to an sgRNA scaffold and a pol III termination signal. Between the tRNA and the sgRNA scaffold, two BsmBI or BbsI sites were incorporated to allow for the insertion of variable targeting sequences. tRNA-sgRNA cassettes were then cloned into Cas9 expression vectors pCMVSau (discussed more fully below), pCMVNme, or pX330 (Addgene, plasmid #42230) expressing S. aureus, N. meningitidis, or S. pyogenes Cas9, respectively. In the case of pX330 the U6 promoter was exchanged for the tRNA-sgRNA cassette.
(§2) Reporter assays with 293T cells were performed by using the calcium phosphate transfection method. Briefly, 293T cells were plated at ˜1.25×10^5 cells per well in 12-well plates and transfected with a 4:1 ratio of the RGN expression plasmid to the FLuc-based indicator plasmid as well as 10 ng of a RLuc plasmid. Transfected 293T cells were then harvested 72 hours post transfection in Passive Lysis Buffer (Promega) and assayed for both FLuc and RLuc activity (Promega Dual-Luciferase Reporter Assay System) with RLuc serving as an internal control and normalization factor.
Initially we generated predicted fusion transcripts consisting of a human glutamine tRNA (SEQ ID NO: 41), a human histidine tRNA (SEQ ID NO: 44) or an MHV68 tRNA (M1-7; SEQ ID NO: 50)) linked to Spy Cas9 sgRNAs specific for a target DNA sequence derived either from the human papillomavirus serotype 18 (HPV-18) E6 or E7 gene (SEQ ID NO: 8 and 10, respectively), as described above. Indicator plasmids consisting of these viral target sequences linked to the FLuc gene, constructed as described above, were then co-transfected into 293T cells along with a plasmid encoding Spy Cas9, plasmids encoding each of the tRNA promoters, or the U6 promoter, linked to the same sgRNA and finally a RLuc-based internal control plasmid. Cells were harvested at 72 h post-transfection and FLuc and RLuc levels determined.

Series [3] concerns HSV-1 ICP0 gene. The series can be described thus: FLuc indicator assay in 293T cells, Sau Cas9 sgRNA expressed from various tRNAs. To be noted: Sau Cas9, identical HSV-1 ICP0 sgRNA (SEQ ID NO: 16), tRNA promoter varied.
From the text: as §1, §2
As such Sau encodes a promising Cas9 gene for potential use in AAV vectors. To analyze whether we could also produce active Sau sgRNAs using tRNA promoters, we expressed the identical Sau sgRNA, specific for a target within the HSV-1 ICP0 gene (SEQ ID NO: 16), using a wide range of human tRNAs. […] The reason for the lower efficiency of processing seen with all of these tRNA:sgRNA fusions is currently unclear, but could relate to the single invariant sgRNA sequence used in this experiment.

Setting [4] is: HBV2.2.15 cells expressing Cas9 and HBV RT sgRNA, read-out: Percent inhibition of HBV DNA release into the supernatant medium, HBV RT sgRNA.
The mark [5] stands for this setting: HBV2.2.15 cells expressing Cas9 and HBV core sgRNA, read-out: Percent inhibition of HBV DNA release into the supernatant medium, HBV core sgRNA.
[6] abbreviates: HBV2.2.15 cells expressing Cas9 and HBV surface sgRNA, read-out: Percent inhibition of HBV DNA release into the supernatant medium, HBV surface sgRNA.
Where [7] appears, read: HBV2.2.15 cells expressing Cas9 and N.S. sgRNA, triplicate, read-out: Percent inhibition of HBV DNA release into the supernatant medium, N.S. sgRNA.

Counter-ions that a name gives are not always drawn. Like-named read-outs stand apart in the source and are kept apart here.

For the molecule `Nc1ccn([C@@H]2CS[C@H](CO)O2)c(=O)n1` [3TC, lamivudine], the inhibition (commonly the relative decrease from the control value, in per cent) at 1 µM in series [1] (setting [4]) came to 99.1 ± 0.03%; in series [1] (setting [5]), 97.1 ± 0.5%; in series [1] (setting [6]) it was 96.3 ± 0.1%; in series [1] (setting [7]), 61.4 ± 6.2%.

For `CC(C)OC(=O)OCOP(=O)(CO[C@H](C)Cn1cnc2c(N)ncnc21)OCOC(=O)OC(C)C` [TDF, tenofovir disoproxil fumarate], the inhibition at 1 µM in series [1] (setting [4]) came to 98.9 ± 0.2%; in series [1] (setting [5]), 97 ± 0.3%; in series [1] (setting [6]), 95.9 ± 0.7%; in series [1] (setting [7]), 68.1 ± 1.5%.

Turning to `C=C1[C@H](CO)[C@@H](O)C[C@@H]1n1cnc2c(=O)[nH]c(N)nc21` [ETV, entecavir], the inhibition at 1 µM in series [1] (setting [4]) turned out to be 98.5 ± 1%; in series [1] (setting [5]), 97.9 ± 0.6%; in series [1] (setting [6]), 97.6 ± 1.1%; in series [1] (setting [7]), 78.3 ± 7.9%.

Turning to `COC(=O)C1=C(CN2CCOCC2)NC(c2ccccn2)=NC1c1ccc(F)cc1Cl` (stereo not shown) [HAP12, heteroaryldihydropyrimidine], in series [1] (HBV2.2.15 cells expressing Cas9 and HBV RT sgRNA), the “Percent inhibition of HBV DNA release into the supernatant medium, HBV RT sgRNA” value is 97.5 ± 0.7%. Further, in series [1] (HBV2.2.15 cells expressing Cas9 and HBV core sgRNA), the “Percent inhibition of HBV DNA release into the supernatant medium, HBV core sgRNA” value is on record as 97.6 ± 0.1%. The “Percent inhibition of HBV DNA release into the supernatant medium, HBV surface sgRNA” value in series [1] (HBV2.2.15 cells expressing Cas9 and HBV surface sgRNA) amounted to 98.0 ± 0.3%. The “Percent inhibition of HBV DNA release into the supernatant medium, N.S. sgRNA” value in series [1] (HBV2.2.15 cells expressing Cas9 and N.S. sgRNA, triplicate) came out at 77.5 ± 5.2%.

B1: tRNAHIS: human histidine tRNA promoter (SEQ ID NO: 44) fused to sgRNA (nucleic acid)
DNA: GCCGTGATCGTATAGTGGTTAGTACTCTGCGTTGTGGCCGCAGCAACCTCGGTTCGAATCCGAGTCACGGCA
modifications: expressed or natural sequence
For B1, the “knockdown of E6- and E7-based FLuc indicator constructs” value in series [2] is “slightly less effective”.

B2: tRNACYS: human tRNA promoter, SEQ ID NO: 48, fused to sgRNA (nucleic acid)
DNA: GGGGGTATAGCTCAGGGGTAGAGCATTTGACTGCAGATCAAGAGGTCCCCAGTTCAAATCTGGGTGCCCCCT
modifications: expressed or natural sequence
On to B2, for which the “knockdown of FLuc indicator” value in series [3] is reported as “readily detectable knockdown”.

B3: tRNAMHV-7: MHV68 tRNA promoter (SEQ ID NO: 50) fused to sgRNA (nucleic acid)
DNA: GCCAGGGTAGCTCAATTGGTAGAGCATCAGGCTAGTATCCTGTCGGTTCCGGTTCAAGTCCGGGCCCTGGTT
modifications: expressed or natural sequence
As to B3, the “knockdown of E6- and E7-based FLuc indicator constructs” value in series [2] was “effective and comparable knockdown”.

B4: tRNAGLN: human glutamine tRNA promoter (SEQ ID NO: 41) fused to sgRNA (nucleic acid)
DNA: GGTTCCATGGTGTAATGGTTAGCACTCTGGACTCTGAATCCAGCGATCCGAGTTCAAATCTCGGTGGAACCT
modifications: expressed or natural sequence
Turning to B4, the “knockdown of E6- and E7-based FLuc indicator constructs” value in series [2] is “effective and comparable knockdown”. Moreover, in series [3], the “knockdown of FLuc indicator” value is reported as “strong knockdown”.

B5: tRNAGLN2: human tRNA promoter, SEQ ID NO: 45, fused to sgRNA (nucleic acid)
DNA: GGTTCCATGGTGTAATGGTTAGCACTCTGGACTCTGAATCCAGCGATCCGAGTTCAAATCTCGGTGGAACCT
modifications: expressed or natural sequence
In the case of B5, in series [3], the “knockdown of FLuc indicator” value is “strong knockdown”.

B6: tRNAGLU: human tRNA promoter, SEQ ID NO: 46, fused to sgRNA (nucleic acid)
DNA: TCCCTGGTGGTCTAGTGGTTAGGATTCGGCGCTCTCACCGCCGCGGCCCGGGTTCGATTCCCGGTCAGGGAA
modifications: expressed or natural sequence
Turning to B6, the “knockdown of FLuc indicator” value in series [3] is “strong knockdown”.

B7: tRNATYR: human tRNA promoter, SEQ ID NO: 49, fused to sgRNA (nucleic acid)
DNA: GTCAGTGTTGCACAACGGTTAAGTGAAGAGGCTGTAAACCCAGACTGGATGGGTTCAATTCCCATCTCTGCCG
modifications: expressed or natural sequence
With B7, the “knockdown of FLuc indicator” value in series [3] is “little or no detectable knockdown”.

B8: U6 promoter: U6 pol III promoter, ~254 bp, SEQ ID NO: 51, driving sgRNA transcription (nucleic acid)
DNA: TCTAGAGAGGGCCTATTTCCCATGATTCCTTCATATTTGCATATACGATACAAGGCTGTTAGAGAGATAATTGGAATTAATTTGACTGTAAACACAAAGATATTAGTACAAAATACGTGACGTAGAAAGTAATAATTTCTTGGGTAGTTTGCAGTTTTAAAATTATGTTTTAAAATGGACTATCATATGCTTACCGTAACTTGAAAGTATTTCGATTTCTTGGCTTTATATATCTTGTGGAAAGGACGAAACACC
modifications: Synthetic U6 Promoter
In the case of B8, the “knockdown of E6- and E7-based FLuc indicator constructs” value in series [2] was “effective and comparable knockdown”.
